Test results taken from PubChem BioAssay AID2060899 (Molecular Pharmacology Branch, DTP, NCI, 2025).

Test system: 565726-208-R1-J5-PDC complex spheroids, growth inhibition
Assay: Anticancer human tumor 565726-208-R1-J5-PDC patient-derived pancreatic adenocarcinoma cell line growth inhibition [RAS]
Conditions: for IC50: curve of first compound; for viability, T/C: stronger effect = lower value
Procedure, shortened: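 Agents were tested in combination matrices in half-log decrements from a top concentration at or near clinical Cmax (10 microM if undetermined). Targets were multi-cell spheroids of tumour lines plus HUVEC and MSC stromal cells.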

[1] = second compound 0.0316 µM, first compound 0.0316 µM
[2] = second compound 0.0316 µM, first compound 0.1 µM
[3] = second compound 0.0316 µM, first compound 0.316 µM
[4] = second compound 0.0316 µM, first compound 1 µM
[5] = second compound 0.1 µM, first compound 0.0316 µM
[6] = second compound 0.1 µM, first compound 0.1 µM
[7] = second compound 0.1 µM, first compound 0.316 µM
[8] = second compound 0.1 µM, first compound 1 µM
[9] = second compound 0.316 µM, first compound 0.0316 µM
[10] = second compound 0.316 µM, first compound 0.1 µM
[11] = second compound 0.316 µM, first compound 0.316 µM
[12] = second compound 0.316 µM, first compound 1 µM
[13] = second compound 1 µM, first compound 0.0316 µM
[14] = second compound 1 µM, first compound 0.1 µM
[15] = second compound 1 µM, first compound 0.316 µM
[16] = second compound 1 µM, first compound 1 µM
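Also: spheroids exposed to compounds for seven days before readout.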
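For viability, T/C in this document: 100% = DMSO vehicle control viability.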

In the case of `C=CC(=O)Nc1cc(Nc2nccc(-c3cn(C)c4ccccc34)n2)c(OC)cc1N(C)CCN(C)C` + C=CC(=O)N1CCN(c2nc(OCC3CCCN3C)nc3c(F)c(-c4nc(N)cc(C)c4C(F)(F)F)c(Cl)cc23)C(C)C1, the IC50 (second compound 0.00316 µM) is reported as over 1 µM, the IC50 (second compound 0.01 µM) is reported as over 1 µM and the IC50 (second compound 0.0316 µM) is reported as over 1 µM. For the same compound, the IC50 (second compound 0.1 µM) was over 1 µM, the IC50 (second compound 0.316 µM) was over 1 µM and the IC50 (second compound 1 µM) was over 1 µM. It also gave a viability, T/C (second compound 0.00316 µM, first compound 0.00316 µM) of 105%, a viability, T/C (second compound 0.00316 µM, first compound 0.01 µM) of 171% and a viability, T/C (second compound 0.00316 µM, first compound 0.0316 µM) of 121%. For the same compound, the viability, T/C (second compound 0.00316 µM, first compound 0.1 µM) was 90.5%, the viability, T/C (second compound 0.00316 µM, first compound 0.316 µM) was 94.2% and the viability, T/C (second compound 0.00316 µM, first compound 1 µM) was 121%. For the same compound, the viability, T/C (second compound 0.01 µM, first compound 0.00316 µM) was 137%, the viability, T/C (second compound 0.01 µM, first compound 0.01 µM) was 150% and the viability, T/C (second compound 0.01 µM, first compound 0.0316 µM) was 106%. For the same compound, the viability, T/C (second compound 0.01 µM, first compound 0.1 µM) was 94.1%, the viability, T/C (second compound 0.01 µM, first compound 0.316 µM) was 80.9% and the viability, T/C (second compound 0.01 µM, first compound 1 µM) was 128%. It also gave a viability, T/C (second compound 0.0316 µM, first compound 0.00316 µM) of 168%, a viability, T/C (second compound 0.0316 µM, first compound 0.01 µM) of 157% and a viability, T/C [1] of 88.9%. It also gave a viability, T/C [2] of 105%, a viability, T/C [3] of 87.6% and a viability, T/C [4] of 114%. It also gave a viability, T/C (second compound 0.1 µM, first compound 0.00316 µM) of 135%, a viability, T/C (second compound 0.1 µM, first compound 0.01 µM) of 162% and a viability, T/C [5] of 124%. For the same compound, the viability, T/C [6] was 87.1%, the viability, T/C [7] was 82% and the viability, T/C [8] was 108%. The viability, T/C (second compound 0.316 µM, first compound 0.00316 µM) was 161%, the viability, T/C (second compound 0.316 µM, first compound 0.01 µM) was 152% and the viability, T/C [9] was 99.8%. It also gave a viability, T/C [10] of 106%, a viability, T/C [11] of 74.8% and a viability, T/C [12] of 141%. It also gave a viability, T/C (second compound 1 µM, first compound 0.00316 µM) of 145%, a viability, T/C (second compound 1 µM, first compound 0.01 µM) of 159% and a viability, T/C [13] of 101%. The viability, T/C [14] was 115%, the viability, T/C [15] was 87.3% and the viability, T/C [16] was 109%.
Work on `C[C@@H](NC(=O)c1ncnc(N)c1Cl)c1ncc(C(=O)Nc2cc(C(F)(F)F)c(Cl)cn2)s1` + CCn1c(-c2cccnc2C(C)OC)c2c3cc(ccc31)N1CCOC(CC(NC(=O)C(C(C)C)N(C)C(=O)C3(F)CCN(C(=O)C#CC(C)(C)N(C)C)CC3)C(=O)N3CCCC(N3)C(=O)OCC(C)(C)C2)C1 yielded an IC50 (second compound 0.000949 µM) of over 10 µM, an IC50 (second compound 0.003 µM) of over 10 µM and an IC50 (second compound 0.00949 µM) of over 10 µM. For the same compound, the IC50 (second compound 0.03 µM) was over 10 µM, the IC50 (second compound 0.0949 µM) was over 10 µM and the IC50 (second compound 0.3 µM) was over 10 µM. For the same compound, the viability, T/C (second compound 0.000949 µM, first compound 0.0316 µM) was 111%, the viability, T/C (second compound 0.000949 µM, first compound 0.1 µM) was 109% and the viability, T/C (second compound 0.000949 µM, first compound 0.316 µM) was 113%. For the same compound, the viability, T/C (second compound 0.000949 µM, first compound 1 µM) was 103%, the viability, T/C (second compound 0.000949 µM, first compound 3.16 µM) was 98.1% and the viability, T/C (second compound 0.000949 µM, first compound 10 µM) was 83.3%. For the same compound, the viability, T/C (second compound 0.003 µM, first compound 0.0316 µM) was 118%, the viability, T/C (second compound 0.003 µM, first compound 0.1 µM) was 111% and the viability, T/C (second compound 0.003 µM, first compound 0.316 µM) was 107%. The viability, T/C (second compound 0.003 µM, first compound 1 µM) was 109%, the viability, T/C (second compound 0.003 µM, first compound 3.16 µM) was 98% and the viability, T/C (second compound 0.003 µM, first compound 10 µM) was 79.8%. It also gave a viability, T/C (second compound 0.00949 µM, first compound 0.0316 µM) of 108%, a viability, T/C (second compound 0.00949 µM, first compound 0.1 µM) of 107% and a viability, T/C (second compound 0.00949 µM, first compound 0.316 µM) of 104%. The viability, T/C (second compound 0.00949 µM, first compound 1 µM) was 114%, the viability, T/C (second compound 0.00949 µM, first compound 3.16 µM) was 105% and the viability, T/C (second compound 0.00949 µM, first compound 10 µM) was 82.2%. It also gave a viability, T/C (second compound 0.03 µM, first compound 0.0316 µM) of 102%, a viability, T/C (second compound 0.03 µM, first compound 0.1 µM) of 110% and a viability, T/C (second compound 0.03 µM, first compound 0.316 µM) of 112%. The viability, T/C (second compound 0.03 µM, first compound 1 µM) was 112%, the viability, T/C (second compound 0.03 µM, first compound 3.16 µM) was 105% and the viability, T/C (second compound 0.03 µM, first compound 10 µM) was 80.9%. For the same compound, the viability, T/C (second compound 0.0949 µM, first compound 0.0316 µM) was 108%, the viability, T/C (second compound 0.0949 µM, first compound 0.1 µM) was 101% and the viability, T/C (second compound 0.0949 µM, first compound 0.316 µM) was 99.7%. For the same compound, the viability, T/C (second compound 0.0949 µM, first compound 1 µM) was 108%, the viability, T/C (second compound 0.0949 µM, first compound 3.16 µM) was 90.1% and the viability, T/C (second compound 0.0949 µM, first compound 10 µM) was 90.6%. The viability, T/C (second compound 0.3 µM, first compound 0.0316 µM) was 91.3%, the viability, T/C (second compound 0.3 µM, first compound 0.1 µM) was 98.7% and the viability, T/C (second compound 0.3 µM, first compound 0.316 µM) was 95%. For the same compound, the viability, T/C (second compound 0.3 µM, first compound 1 µM) was 107%, the viability, T/C (second compound 0.3 µM, first compound 3.16 µM) was 90% and the viability, T/C (second compound 0.3 µM, first compound 10 µM) was 77.5%.
Work on `CCC(CC)c1cc(NC2CCC(N)C2)n2nccc2n1` (stereo unspecified) + C#Cc1c(F)ccc2cc(O)cc(-c3ncc4c(N5CC6CCC(C5)N6)nc(OCC56CCCN5CC(F)C6)nc4c3F)c12 yielded an IC50 (second compound 0.0316 µM) of 1.46 µM, an IC50 (second compound 0.1 µM) of 1.25 µM and an IC50 (second compound 0.316 µM) of 1.36 µM. The IC50 (second compound 1 µM) was 1.03 µM, the IC50 (second compound 3.16 µM) was 0.665 µM and the IC50 (second compound 10 µM) was 0.426 µM. The viability, T/C [1] was 111%, the viability, T/C [2] was 163% and the viability, T/C [3] was 113%. It also gave a viability, T/C [4] of 74.5%, a viability, T/C (second compound 0.0316 µM, first compound 3.16 µM) of 1.28% and a viability, T/C (second compound 0.0316 µM, first compound 10 µM) of 1.5%. It also gave a viability, T/C [5] of 132%, a viability, T/C [6] of 138% and a viability, T/C [7] of 96.9%. It also gave a viability, T/C [8] of 70.2%, a viability, T/C (second compound 0.1 µM, first compound 3.16 µM) of 1.11% and a viability, T/C (second compound 0.1 µM, first compound 10 µM) of 1.87%. For the same compound, the viability, T/C [9] was 133%, the viability, T/C [10] was 135% and the viability, T/C [11] was 103%. The viability, T/C [12] was 73.3%, the viability, T/C (second compound 0.316 µM, first compound 3.16 µM) was 1% and the viability, T/C (second compound 0.316 µM, first compound 10 µM) was 1.94%. The viability, T/C [13] was 141%, the viability, T/C [14] was 123% and the viability, T/C [15] was 98.8%. It also gave a viability, T/C [16] of 58.1%, a viability, T/C (second compound 1 µM, first compound 3.16 µM) of 0.9% and a viability, T/C (second compound 1 µM, first compound 10 µM) of 1.4%. For the same compound, the viability, T/C (second compound 3.16 µM, first compound 0.0316 µM) was 110%, the viability, T/C (second compound 3.16 µM, first compound 0.1 µM) was 106% and the viability, T/C (second compound 3.16 µM, first compound 0.316 µM) was 67.4%. It also gave a viability, T/C (second compound 3.16 µM, first compound 1 µM) of 44.9%, a viability, T/C (second compound 3.16 µM, first compound 3.16 µM) of 0.63% and a viability, T/C (second compound 3.16 µM, first compound 10 µM) of 1.4%. For the same compound, the viability, T/C (second compound 10 µM, first compound 0.0316 µM) was 92.3%, the viability, T/C (second compound 10 µM, first compound 0.1 µM) was 83.5% and the viability, T/C (second compound 10 µM, first compound 0.316 µM) was 51.5%. For the same compound, the viability, T/C (second compound 10 µM, first compound 1 µM) was 37.1%, the viability, T/C (second compound 10 µM, first compound 3.16 µM) was 0.25% and the viability, T/C (second compound 10 µM, first compound 10 µM) was 0.31%.
